Like-named read-outs stand apart in the source and are kept apart here.
Experiments:
[1] = system: V79 (Chinese Hamster Lung Fibroblasts) cells; test: In vitro cytotoxicity assay (light EC50, Alamar blue); type: cell-based
Description: The in vitro biological evaluation of photosensitizers for their ability to photosensitize cells was performed using standard procedures. Using 5% FBS/DMEM phenol-free media, wells (180 μl/well) were plated with 5×10^4 V79 (Chinese Hamster Lung Fibroblasts) cells/ml into two 96 well plates. Plate 1 was light-treated and plate 2 served as a control. The plates were Incubated at 37° C., 5% CO2 for 3-5 hours. Standard solutions of the photosensitizers were dissolved in pre-filtered Dimethyl Sulfoxide (DMSO). Drug was diluted in 5% FBS DMEM phenol free medium. Final drug concentrations for light and dark experiments were 0.01, 0.1, 1.0, 3.0 and 5.0 μM. Twenty microliters of each concentration were added to six replicate wells to the light and dark plate. The plates were wrapped in aluminum foil to avoid photoactivation and mixed in a gyratory shaker for approximately 2 minutes. Both plates were incubated for 24 hours at 37° C., 5% CO2. After a 24 hour incubation, drug-containing media was aspirated from the plates. Each well was rinsed with 180 μl Hepes buffer salt solution (HBSS) then aspirated to remove the HBSS. 180 μl of fresh media were added (5% FBS/DMEM phenol-free) to each well. […] Plate 2 was not light treated. Immediately after light treatment, 20 μl Alamar blue was added to each well in plate 1. Alamar blue was added to plate 2 immediately after fresh media was added. The plates were mixed on a gyratory shaker for 5 min.
Both plates were incubated under dark conditions for 24 hours at 37° C., 5% CO2. After 24 hour incubation, the plates were read on a plate reader spectrophotometer (Spectra Max 250) at wavelengths 570 and 600 nm. and the percentage of cell survival recorded.

[2] = system: normal skin of CD Hairless male rats; type: in vivo, rat
Description: We tested metallo- and metal-free tetrapyrroles systemically (see following section) for normal skin response in relation to the pharmacodynamic distribution of the photosensitizers in CD hairless rats. The skin of CD hairless rats are poorly developed, often referred to as hyperkeratotic, with various sized cystic hair follicles containing concentric lamellar accumulations of keratinaceous material, which are often associated with enlarged sebaceous glands. It quickly became apparent that gallium tetrapyrroles induced a marked clearing of the hyperkeratotic lesions in the treatment areas on the hairless rats. In fact, this clearing could be induced without necrosis of the skin. No other metallotetrapyrrole type produced such effects. This observation led us to assess the metallotetrapyrrolic compounds for skin restructuring effects both topically and systemically and for their ability to reduce hair growth in the following animal models.
Photosensitizer normal skin response as well as skin healing response, was evaluated using CD Hairless male rats. Photosensitizers were administered in an liposomal egg yolk phospholipid formulation at 1, 1.5 and 2 μmol/kg body weight formulation per dose group as a single bolus intravenous injection given through a marginal tail vein using a 27 gauge needle and a 1 cc tuberculin syringe. Normal skin responses were evaluated by irradiating several spots on the skin of the rat with a 532 nm laser (150 mW/cm^2, 150J, 1 cm diameter) at 1, 6, 24, 48, and 96 hrs post injection. Normal skin responses were evaluated and documented. The time at which the last spot is observed at the concentration injected is reported in the far right hand column in Tables 3, 4, 5 and 6. Skin samples were taken for histological evaluation at days 1, 10, 20 and 22 post light treatment. Rats were housed under normal lighting and all study procedures involving the test article were conducted under light filtered through blue and green Roscolox light filters to prevent photoactivation or degradation of the drug.

[3] = system: normal uninjured rat carotid arteries (medial and adventitial cell populations); test: In vivo rat carotid artery acellularity after PDT; design: species or system Sprague Dawley rats; details: for Max % rat Artery Accelularity: Table 3; for Max % Rat Artery Accelularity: Table 4, drug dose 4 μMol
Description: The acute effects of metallated photosensitizers, in response to light activation, to cause depletion of cell populations in the medial and adventitial layers of vessels was measured in normal uninjured rat carotid arteries. […] Shortly before the light treatment, the rats were anaesthetized with 3.5% isoflurane (Abbott Laboratories, IL, USA) and the femoral region of the right leg was shaved and cleaned. […] A direct arteriotomy was performed and a light balloon catheter ([…] Medical Technologies, Inc) was introduced into the vessel and advanced retrogradely into a non-manipulated region of the left common carotid artery via the abdominal aorta. […] After light treatment and removal of the catheter, the right femoral artery was tied off and the skin wound was closed. Rats were sacrificed three days post treatment as this corresponds to the known peak time that vascular cells, e.g., VSMC and myofibroblasts, proliferate and migrate in response to an injury. The area spanning both left and right carotid arteries and surrounding tissue was harvested, fixed, embedded in paraffin and sectioned. The tissues were stained with Hematoxylin and Eosin (Fisher Scientific, PA) and examined by light microscopy to histologically assess the cell population density in the medial and adventitial layers of the PDT-treated vessel wall. […] Metallo azaporphyrins with Ga, Zn, Al, Sn were excited at 575 nm, while Pt azaporphyrins were excited at 532 nm.

[4] = Table 3 porphyrins, 24 h drug incubation, 532 nm, 1.25 J/cm^2, read-out: In Vitro EC50 Light
[5] = drug dose 1 μMol, 50 J/cm^2, 3 days post treatment
[6] = Table 3, time of last skin spot observed post injection, 1 μmol, 532 nm laser

| Compound | EC50 [1, 4] | Normal skin Response (1 μmol) in hrs ([2]; rat, in vivo) | Normal skin Response (1 μmol) ([2]; rat, in vivo) | Max % rat Artery Accelularity [3, 5] | further results |
| --- | --- | --- | --- | --- | --- |
| 8,13-diethyl-3,7,12,17-tetramethylporphrine-2,18-di(3′-hydroxypropyl) [Example 7a] | 0.4 µM | none |  |  | Max % rat Artery Accelularity ([3]; drug dose 0.16 μMol): 7%; efficacy of free base porphyrins in the arterial rat model ([3]; at the time point, drug and light dose parameters used): poor efficacy; efficacy in the rat arterial model ([3]; drug doses up to 2 μmol/Kg): no efficacy |
| CCOC(=O)CCC1=C(C)c2cc3[n-]c(cc4nc(cc5[n-]c(cc1n2)c(CCC(=O)OCC)c5C)C(CC)=C4C)c(CC)c3C.[Cl-].[Ga+3] [Example 2, Gallium Chloride Mesoporphyrin Diethyl Ester] | 0.49 µM |  | 24 h | 80% |  |
| CCOC(=O)CCC1=C(C)c2cc3[n-]c(cc4nc(cc5[n-]c(cc1n2)c(CCC(=O)OCC)c5C)C=C4C)cc3C.[Cl-].[Ga+3] [Example 5, Gallium Chloride Deuteroporphyrin Diethyl Ester] | 0.4 µM |  | 48 h | 80% |  |
| CC1=Cc2cc3[n-]c(cc4nc(cc5[n-]c(cc1n2)c(C)c5CCCO)C(CCCO)=C4C)cc3C.[Cl-].[Ga+3] [Example 8, Gallium Chloride 8,13-desvinyl-3,7,12,17-tetramethylporphyrin-2,18-di(3′-hydroxypropyl)] | 0.4 µM |  | 96 h | 80% |  |
| CCC1=C(C)C2=[N+]3C1=Cc1c(C)c(CC)c4[n]1[Ga-2]31([Cl])[n]3c(c(C)c(CCC(=O)NCCOC)c3=CC3=[N+]1C(=C4)C(C)=C3CCC(=O)NCCOC)=C2 [Example 11, Gallium Chloride Mesoporphyrin di-(2′-methoxyethyl amide)] | 1.9 µM |  | 6 h | 30% |  |
| COC(=O)CCC1=C(C)c2cc3[n-]c(cc4nc(cc5[n-]c(cc1n2)c(CCC(=O)OC)c5C)C(CN(C)C)=C4C)c(CN(C)C)c3C.[Ga+3].[OH-] [Example 12, Gallium Hydroxy 3,8-N,N-dimethylaminomethyl deuteroporphyrin dimethyl ester] | 0.5 µM | None |  | 50% |  |
| C=Cc1c(C)c2cc3nc(c(CC(=O)OC)c4[n-]c(cc5nc(cc1[n-]2)C(C)=C5CC)c(C)c4C(=O)NC)C(CCC(=O)OC)=C3C.[Cl-].[Ga+3] [Example 14, Gallium Chloride Chloroporphyrin e6 Dimethyl Ester 12-methylamide] |  |  | 6 h |  | EC50 ([1]; Table 5 plant derived gallium porphyrins, light, read-out: In Vitro EC(50)): 0.29 µM; Max % Rat Artery Acceluarity ([3]; Table 5, drug dose 1 μMol): 65% |
| CCC1=C(C)c2cc3[n-]c(cc4nc(cc5[n-]c(cc1n2)c(C)c5CCC(=O)OC)C(CCC(=O)OC)=C4C)c(C)c3CC.[Zn+2] [Example 33, Zinc Mesoporphyrin Dimethyl Ester] |  |  | 24 h | 0% |  |
| CCC1=C(C)C2=NC1=Cc1c(C)c(CC)c3[n]1[Pt][n]1c(c(C)c(CCCC(=O)OC)c1=CC1=NC(=C3)C(C)=C1CCCC(=O)OC)=C2 [Example 47, Platinum 8,13-diethyl-3,7,12,17-tetramethylporphyrin-2,18-di(butanoic acid methyl ester)] | 0.2 µM |  |  |  | Normal skin Response (1 μmol) [2, 6]: 48 h |
| CCC1=C(C)C2=[N+]3C1=Cc1c(C)c(CC)c4[n]1[Zn-2]31[n]3c(c(C)c(CCC(=O)NCCCN5CCOCC5)c3=CC3=[N+]1C(=C4)C(C)=C3CCC(=O)NCCCN1CCOCC1)=C2 (centres unmarked) [Example 63, Zinc Mesoporphyrin 3-(N-morpholino)propylamide] | 0.025 µM | None |  |  |  |
| CCC1=C(C)c2cc3[n-]c(cc4nc(cc5[n-]c(cc1n2)c(C)c5CCC(=O)NCCCO)C(CCC(=O)NCCCO)=C4C)c(C)c3CC.[Cl-].[Ga+3] [Example 66, Gallium Chloride Mesoporphyrin di(3-hydroxypropylamide)] | 0.2 µM | None |  |  |  |
| CCC1=C(C)C2=[N+]3C1=Cc1c(C)c(CC)c4[n]1[Ga-2]31([OH])[n]3c(c(C)c(CCC(=O)NCCN(C)C)c3=CC3=[N+]1C(=C4)C(C)=C3CCC(=O)NCCN(C)C)=C2 [Example 70, Gallium Hydroxy Mesoporphyrin di-(N,N-dimethylaminoethylamide)] | 1.7 µM | None |  |  |  |
| CCC1=C(C)c2cc3[nH]c(cc4nc(cc5[nH]c(cc1n2)c(C)c5CCC(=O)NCCN(C)C)C(CCC(=O)NCCN(C)C)=C4C)c(C)c3CC.[Pt] [Example 71, Platinum Mesoporphyrin di(N,N-dimethylaminoethylamide)] | 0.2 µM |  | 96 h |  |  |
| CCC1=C(C)c2cc3[n-]c(cc4nc(cc5[n-]c(cc1n2)c(C)c5CC)C(C)=C4CCCN1CCCC1)c(CCCN1CCCC1)c3C.[In+3].[OH-] [Example 76, Indium hydroxy 8,13-diethyl-3,7,12,17-tetramethylporphyrin-2,18-di(3-(N-pyrrolidino)propyl)] | 0.02 µM |  |  |  | Normal skin Response (1 μmol) [2, 6]: 96 h |
| CCOP(=O)(CCCC1=C(C)c2cc3cc(C)c(cc4nc(cc5[n-]c(cc1n2)c(CCCP(=O)(OCC)OCC)c5C)C(C)=C4)[n-]3)OCC.[Cl-].[In+3] [Example 81, Indium Chloride 3,7,12,17-tetramethylporphyrin-2,18-di((3′-diethylphosphono)propyl)] | 0.4 µM |  |  |  | Normal skin Response (1 μmol) [2, 6]: 48 h; photodynamic activity in vivo ([2]; text b240): photodynamically active in vivo |
| CCC1=C(CC)C2=[N+]3C1=Nc1c(CC)c(CC)c4[n]1[Ga-2]31([OH])[n]3c(c(C)c(CCC(=O)[O-])c3=CC3=[N+]1C(=C4)C(C)=C3CCC(=O)[O-])=C2.[Na+].[Na+] [Example 88, Gallium Hydroxy 7,8,12,13-tetraethyl-12,17-dimethyl-10-azaporphyrin-2,18-di(propionic acid Sodium Salt)] |  | None |  |  | normal skin response at the drug doses used ([2]; rat, in vivo): no observed normal skin response; acellularity following PDT of rat arteries at longer treatment times post injection ([3]; 16, 24 hrs post injection): significant acellularity; accelularity in rat artery at a four hour treatment point ([3]; 4 hrs post administration): 10%; Max % Rat Artery Accelularity ([3]; 4 hrs): 10 (4 hrs) %; Max % Rat Artery Accelularity ([3]; 24 hrs): 100 (24 hrs) % |
| CCC1=C(CC)C2=Nc3c(CC)c(CC)c4[n]3[In]([Cl])[n]3c(c(C)c(CCCOC)c3=CC3=NC(=C4)C(C)=C3CCCOC)=CC1=N2 [Example 107, Indium Chloride 7,8,12,13-tetraethyl-12,17-dimethyl-10-azaporphyrin-2,18-di(3-methoxypropyl)] |  |  | 96 h |  | EC50 ([1]; Table 4 azaporphyrins, 575 nm (Pt azaporphyrins 532 nm), 1.25 J/cm^2, read-out: In Vitro EC(50)): 0.05 µM |
| Platinum Mesoporphyrin di(2-ethoxyethanolamide) [Example 69] | 0.5 µM | None |  |  |  |
